According to ChEMBL document CHEMBL1909046, “DrugMatrix in vitro pharmacology data”:
pIC50, pKi: −log10 of the molar value.

Legend:
[1] = DRUGMATRIX: Calcium Channel Type L, Dihydropyridine radioligand binding (ligand: [3H] Nitrendipine); type: cell membranes, Rattus norvegicus, Wistar, Cerebral cortex, Membrane; settings: Not Active = under 50% inhibition at 10 µM
[2] = molecular target: Sodium-dependent dopamine transporter (Homo sapiens, UniProt Q01959); assay: DRUGMATRIX: Dopamine Transporter radioligand binding (ligand: [125I] RTI-55); type: cell membranes, CHO-K1, Membrane; settings: Not Active = under 50% inhibition at 10 µM; for IC50: cho-k1; for pIC50: read-out: IC50; for pKi: read-out: Ki
Chain of Sodium-dependent dopamine transporter (Q01959 whole entry): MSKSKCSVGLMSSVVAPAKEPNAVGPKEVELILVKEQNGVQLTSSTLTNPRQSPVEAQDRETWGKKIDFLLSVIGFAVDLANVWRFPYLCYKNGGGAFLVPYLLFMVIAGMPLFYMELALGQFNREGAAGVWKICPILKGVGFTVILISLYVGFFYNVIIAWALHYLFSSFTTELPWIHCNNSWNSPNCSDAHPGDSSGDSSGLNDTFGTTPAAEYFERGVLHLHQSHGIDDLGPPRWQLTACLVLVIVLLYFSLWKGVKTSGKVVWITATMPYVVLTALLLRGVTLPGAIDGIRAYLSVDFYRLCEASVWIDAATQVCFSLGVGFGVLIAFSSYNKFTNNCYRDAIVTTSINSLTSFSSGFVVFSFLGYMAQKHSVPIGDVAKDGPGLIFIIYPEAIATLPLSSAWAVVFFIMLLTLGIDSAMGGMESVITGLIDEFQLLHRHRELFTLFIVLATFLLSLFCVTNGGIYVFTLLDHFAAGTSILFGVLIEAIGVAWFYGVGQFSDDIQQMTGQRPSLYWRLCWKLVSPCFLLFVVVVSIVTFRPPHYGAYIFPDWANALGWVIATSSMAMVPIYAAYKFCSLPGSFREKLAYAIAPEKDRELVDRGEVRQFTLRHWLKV

[3] = molecular target: Histamine H2 receptor (Homo sapiens, UniProt P25021); type: cell membranes, CHO-K1, Membrane; settings: cho-k1; further: in other assays of this panel Not Active means under 50% inhibition at 10 µM
Chain of Histamine H2 receptor (P25021 whole entry): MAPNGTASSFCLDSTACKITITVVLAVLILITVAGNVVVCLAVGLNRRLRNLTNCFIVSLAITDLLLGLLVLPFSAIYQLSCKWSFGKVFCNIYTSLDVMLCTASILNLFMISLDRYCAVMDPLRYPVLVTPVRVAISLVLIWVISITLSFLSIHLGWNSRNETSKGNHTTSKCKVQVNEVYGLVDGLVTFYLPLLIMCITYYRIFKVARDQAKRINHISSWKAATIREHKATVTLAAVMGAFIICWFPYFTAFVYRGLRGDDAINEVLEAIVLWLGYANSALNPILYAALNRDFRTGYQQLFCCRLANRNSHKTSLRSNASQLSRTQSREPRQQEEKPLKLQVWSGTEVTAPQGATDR

[4] = molecular target: Melanocortin receptor 5 (Homo sapiens, UniProt P33032); type: cell membranes, HEK293, Membrane; settings: hek293; further: in other assays of this panel Not Active means under 50% inhibition at 10 µM
Chain of Melanocortin receptor 5 (P33032 whole entry): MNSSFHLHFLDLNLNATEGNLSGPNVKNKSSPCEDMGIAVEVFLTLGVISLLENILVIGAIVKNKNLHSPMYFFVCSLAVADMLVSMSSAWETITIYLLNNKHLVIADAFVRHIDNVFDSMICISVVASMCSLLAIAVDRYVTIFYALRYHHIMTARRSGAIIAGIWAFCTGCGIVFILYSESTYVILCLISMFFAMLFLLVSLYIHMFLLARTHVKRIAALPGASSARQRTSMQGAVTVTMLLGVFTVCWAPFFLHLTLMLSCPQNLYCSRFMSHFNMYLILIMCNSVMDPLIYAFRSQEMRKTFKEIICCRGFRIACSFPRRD

[5] = molecular target: T1, Muscarinic acetylcholine receptor M4 (Homo sapiens, UniProt P08173); type: cell membranes, CHO-K1, Membrane; settings: cho-k1; further: in other assays of this panel Not Active means under 50% inhibition at 10 µM
T1 sequence (P08173 whole entry): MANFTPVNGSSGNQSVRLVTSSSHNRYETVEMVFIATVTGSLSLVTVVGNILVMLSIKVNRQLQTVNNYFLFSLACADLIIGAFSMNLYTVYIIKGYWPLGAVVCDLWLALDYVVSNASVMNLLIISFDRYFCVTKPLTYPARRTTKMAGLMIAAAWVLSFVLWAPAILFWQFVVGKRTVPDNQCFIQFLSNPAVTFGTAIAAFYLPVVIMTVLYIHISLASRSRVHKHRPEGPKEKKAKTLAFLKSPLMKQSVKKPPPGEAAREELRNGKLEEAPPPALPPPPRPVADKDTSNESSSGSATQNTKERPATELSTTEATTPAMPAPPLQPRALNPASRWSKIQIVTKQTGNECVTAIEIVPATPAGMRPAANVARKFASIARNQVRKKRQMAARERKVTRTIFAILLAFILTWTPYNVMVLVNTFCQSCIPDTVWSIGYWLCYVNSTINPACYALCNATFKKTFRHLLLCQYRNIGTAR

[6] = molecular target: T2, Adenosine receptor A1 (Homo sapiens, UniProt P30542); type: cell membranes, CHO, Membrane; settings: cho;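 further: radioligand binding assay at the adenosine A1 receptor, with DPCPX serving as the labelled ligand; in other assays of this panel Not Active means under 50% inhibition at 10 µM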
T2 sequence (P30542 whole entry): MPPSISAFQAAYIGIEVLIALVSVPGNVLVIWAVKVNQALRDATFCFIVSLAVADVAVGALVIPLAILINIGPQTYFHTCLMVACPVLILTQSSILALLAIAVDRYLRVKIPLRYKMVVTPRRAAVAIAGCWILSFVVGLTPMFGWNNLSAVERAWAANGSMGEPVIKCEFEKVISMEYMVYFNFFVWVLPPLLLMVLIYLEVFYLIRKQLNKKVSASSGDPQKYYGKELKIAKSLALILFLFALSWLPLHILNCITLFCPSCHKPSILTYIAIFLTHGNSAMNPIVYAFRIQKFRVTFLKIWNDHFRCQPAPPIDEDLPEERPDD

SMILES | IC50 [1] | Ki [1] | IC50 [2] | IC50 [3] | IC50 [4] | IC50 [5] | IC50 [6] | pIC50 ([1]; read-out: IC50) | pKi ([1]; read-out: Ki) | pIC50 [2] | pKi [2]
CCc1oc2ccccc2c1C(=O)c1cc(Br)c(O)c(Br)c1 [BENZBROMARONE] | Not Active | Not Active | Not Active | Not Active | Not Active | Not Active | Not Active |  |  |  | 
O=c1cc(-c2ccccc2)oc2ccc3ccccc3c12 [BETA-NAPHTHOFLAVONE] | Not Active | Not Active | Not Active | Not Active | Not Active | Not Active | Not Active |  |  |  | 
CC(C)C[C@H]1C(=O)N2CCC[C@H]2[C@]2(O)O[C@](NC(=O)[C@@H]3C=C4c5cccc6[nH]c(Br)c(c56)C[C@H]4N(C)C3)(C(C)C)C(=O)N12 [BROMOCRIPTINE] | Not Active | Not Active | Not Active | Not Active | Not Active | Not Active | Not Active |  |  |  | 
CS(=O)(=O)OCCCCOS(C)(=O)=O [BUSULFAN] | Not Active | Not Active | Not Active | Not Active | Not Active | Not Active | Not Active |  |  |  | 
O=C(/C=C/c1ccc(O)c(O)c1)OCCc1ccccc1 [CAFFEIC ACID PHENETHYL ESTER] | Not Active | Not Active | Not Active | Not Active | Not Active | Not Active | Not Active |  |  |  | 
COc1cc(CNC(=O)CCCC/C=C/C(C)C)ccc1O [CAPSAICIN] | Not Active | Not Active | Not Active | Not Active | Not Active | Not Active | Not Active |  |  |  | 
NC(=O)N1c2ccccc2C=Cc2ccccc21 [CARBAMAZEPINE] | Not Active | Not Active | Not Active | Not Active | Not Active | Not Active | Not Active |  |  |  | 
CCOC(=O)n1ccn(C)c1=S [CARBIMAZOLE] | Not Active | Not Active | Not Active | Not Active | Not Active | Not Active | Not Active |  |  |  | 
Oc1ccccc1O [CATECHOL] | Not Active | Not Active | Not Active | Not Active | Not Active | Not Active | Not Active |  |  |  | 
CO[C@@]1(NC(=O)CSCC#N)C(=O)N2C(C(=O)O)=C(CSc3nnnn3C)CS[C@@H]21 [CEFMETAZOLE] | Not Active | Not Active | Not Active | Not Active | Not Active | Not Active | Not Active |  |  |  | 
CN(C(=O)CCCOc1ccc2[nH]c(=O)ccc2c1)C1CCCCC1 [CILOSTAMIDE] | Not Active | Not Active | Not Active | Not Active | Not Active | Not Active | Not Active |  |  |  | 
CC(C)(Oc1ccc(C2CC2(Cl)Cl)cc1)C(=O)O (stereo not given) [CIPROFIBRATE] | Not Active | Not Active | Not Active | Not Active | Not Active | Not Active | Not Active |  |  |  | 
Nc1nc(Cl)nc2c1ncn2[C@H]1C[C@H](O)[C@@H](CO)O1 [CLADRIBINE] | Not Active | Not Active | Not Active | Not Active | Not Active | Not Active | Not Active |  |  |  | 
CC[C@H]1OC(=O)[C@H](C)[C@@H](O[C@H]2C[C@@](C)(OC)[C@@H](O)[C@H](C)O2)[C@H](C)[C@@H](O[C@@H]2O[C@H](C)C[C@H](N(C)C)[C@H]2O)[C@](C)(OC)C[C@@H](C)C(=O)[C@H](C)[C@@H](O)[C@]1(C)O [CLARITHROMYCIN] | Not Active | Not Active | Not Active | Not Active | Not Active | Not Active | Not Active |  |  |  | 
CCC[C@@H]1C[C@@H](C(=O)N[C@@H]([C@H]2O[C@H](SC)[C@H](O)[C@@H](O)[C@H]2O)[C@H](C)Cl)N(C)C1 [CLINDAMYCIN] | Not Active | Not Active | Not Active | Not Active | Not Active | Not Active | Not Active |  |  |  | 
O=C(O)c1cc(=O)c2c(OCC(O)COc3cccc4oc(C(=O)O)cc(=O)c34)cccc2o1 [CROMOLYN] | Not Active | Not Active | Not Active | Not Active | Not Active | Not Active | Not Active |  |  |  | 
O=P1(N(CCCl)CCCl)NCCCO1 (stereo not given) [CYCLOPHOSPHAMIDE ANHYDROUS] | Not Active | Not Active | Not Active | Not Active | Not Active | Not Active | Not Active |  |  |  | 
CC(=O)O[C@]1(C(C)=O)CC[C@H]2[C@@H]3C=C(Cl)C4=CC(=O)[C@@H]5C[C@@H]5[C@]4(C)[C@H]3CC[C@@]21C [CYPROTERONE ACETATE] | Not Active | Not Active | Not Active | Not Active | Not Active | Not Active | Not Active |  |  |  | 
Nc1nc(N)nc(NC2CC2)n1 [CYROMAZINE] | Not Active | Not Active | Not Active | Not Active | Not Active | Not Active | Not Active |  |  |  | 
C#C[C@]1(O)CC[C@H]2[C@@H]3CCC4=Cc5oncc5C[C@]4(C)[C@H]3CC[C@@]21C [DANAZOL] |  |  |  | Not Active | Not Active | Not Active | Not Active | 4.71 | 4.90 | 5.16 | 5.26
CCN[C@@H](C)Cc1cccc(C(F)(F)F)c1 [DEXFENFLURAMINE] | Not Active | Not Active | Not Active | Not Active | Not Active | Not Active | Not Active |  |  |  | 
C[C@H](C(=O)O)c1cccc(C(=O)c2ccccc2)c1 [DEXKETOPROFEN] | Not Active | Not Active | Not Active | Not Active | Not Active | Not Active | Not Active |  |  |  | 
CN1C(=O)CN=C(c2ccccc2)c2cc(Cl)ccc21 [DIAZEPAM] | Not Active | Not Active | Not Active | Not Active | Not Active | Not Active | Not Active |  |  |  | 
CN1C[C@H](C(=O)N[C@]2(C)O[C@@]3(O)[C@@H]4CCCN4C(=O)[C@H](Cc4ccccc4)N3C2=O)C[C@@H]2c3cccc4[nH]cc(c34)C[C@H]21 [DIHYDROERGOTAMINE] | Not Active | Not Active | Not Active | Not Active | Not Active | Not Active | Not Active |  |  |  | 
Cc1c(N(C)CS(=O)(=O)[O-])c(=O)n(-c2ccccc2)n1C.[Na+] [DIPYRONE SODIUM] | Not Active | Not Active | Not Active | Not Active | Not Active | Not Active | Not Active |  |  |  | 
CC(CCc1ccc(O)cc1)NCCc1ccc(O)c(O)c1 (stereo not given) [DOBUTAMINE] | Not Active | Not Active |  | Not Active | Not Active | Not Active | Not Active |  |  | 6.81 | 6.91
CCn1cc(C(=O)O)c(=O)c2cc(F)c(N3CCNCC3)nc21 [ENOXACIN] | Not Active | Not Active | Not Active | Not Active | Not Active | Not Active | Not Active |  |  |  | 
CCC(=O)O[C@H]1[C@H](O[C@@H]2[C@@H](C)[C@H](O[C@H]3C[C@@](C)(OC)[C@@H](O)[C@H](C)O3)[C@@H](C)C(=O)O[C@H](CC)[C@@](C)(O)[C@H](O)[C@@H](C)C(=O)[C@H](C)C[C@@]2(C)O)O[C@H](C)C[C@@H]1N(C)C [ERYTHROMYCIN PROPIONATE] | Not Active | Not Active | Not Active | Not Active | Not Active | Not Active | Not Active |  |  |  | 
C=C(CC)C(=O)c1ccc(OCC(=O)O)c(Cl)c1Cl [ETHACRYNIC ACID] | Not Active | Not Active | Not Active | Not Active | Not Active | Not Active | Not Active |  |  |  | 
